Measured values as given in ChEMBL document CHEMBL1201862, “PubChem BioAssay data set” (2004).
Calls of active or inactive are those of the source.

Tests used:
[1] = target: T1, E3 ubiquitin-protein ligase XIAP (Homo sapiens, UniProt P98170); test: Counter Screen using XIAP-Bir3 for Chemical Antagonists of Bir1/2 domains of IAP-family anti-apoptotic proteins. [Related pubchem assays (depositor defined):AID1018, AID1449, AID1514, AID1638, AID1749, AID1750, AID488957, AID488963]
[2] = target: T1, E3 ubiquitin-protein ligase XIAP; test: small molecules displacing peptide from XIAP – biochemical, IAP family, fluorescence polarization (AID 1018); type: functional
[3] = target: T2, Short transient receptor potential channel 4 (Mus musculus, UniProt Q9QUQ5); test: block of DAMGO-driven TRPC4 calcium entry – cell-based, HEK293 TRPC4/mu-opioid, Fluo-4 calcium, dose response (AID 434942); type: functional;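 also: potency of inhibitors blocking the TRPC4 calcium response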
T2 sequence (Q9QUQ5 whole entry): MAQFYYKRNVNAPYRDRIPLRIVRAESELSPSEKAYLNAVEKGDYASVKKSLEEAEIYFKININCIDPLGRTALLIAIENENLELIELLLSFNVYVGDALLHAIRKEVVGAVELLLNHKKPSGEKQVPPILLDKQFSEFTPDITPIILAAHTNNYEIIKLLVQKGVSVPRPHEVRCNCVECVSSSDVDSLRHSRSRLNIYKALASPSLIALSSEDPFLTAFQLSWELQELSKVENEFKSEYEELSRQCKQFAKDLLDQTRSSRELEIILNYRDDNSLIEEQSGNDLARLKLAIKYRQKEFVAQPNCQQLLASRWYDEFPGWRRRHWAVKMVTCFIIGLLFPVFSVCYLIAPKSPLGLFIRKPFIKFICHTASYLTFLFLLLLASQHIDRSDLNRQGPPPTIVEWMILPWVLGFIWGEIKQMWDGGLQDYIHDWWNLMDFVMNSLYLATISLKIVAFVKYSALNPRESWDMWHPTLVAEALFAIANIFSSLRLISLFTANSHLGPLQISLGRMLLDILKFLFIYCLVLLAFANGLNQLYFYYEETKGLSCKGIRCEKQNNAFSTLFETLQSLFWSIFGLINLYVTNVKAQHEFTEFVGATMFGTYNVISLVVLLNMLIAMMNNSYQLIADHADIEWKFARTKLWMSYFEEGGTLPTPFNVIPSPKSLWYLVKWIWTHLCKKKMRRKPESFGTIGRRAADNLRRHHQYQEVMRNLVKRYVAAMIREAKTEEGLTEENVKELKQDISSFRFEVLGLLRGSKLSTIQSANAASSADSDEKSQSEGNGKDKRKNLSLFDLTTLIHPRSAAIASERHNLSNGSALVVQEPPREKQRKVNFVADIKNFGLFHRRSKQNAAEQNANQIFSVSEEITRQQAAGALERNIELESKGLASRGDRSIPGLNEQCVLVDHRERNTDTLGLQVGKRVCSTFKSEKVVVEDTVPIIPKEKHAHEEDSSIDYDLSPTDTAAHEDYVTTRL

[4] = target: T3, Corticotropin-releasing factor receptor 2/Corticotropin-releasing factor-binding protein (Homo sapiens, UniProt P24387+Q13324); test: Dose Response confirmation of uHTS hits for small molecule antagonists of the CRF-binding protein and CRF-R2 receptor complex.; type: functional; settings: read-out: IC50_Mean
T3 sequence (Q13324 whole entry): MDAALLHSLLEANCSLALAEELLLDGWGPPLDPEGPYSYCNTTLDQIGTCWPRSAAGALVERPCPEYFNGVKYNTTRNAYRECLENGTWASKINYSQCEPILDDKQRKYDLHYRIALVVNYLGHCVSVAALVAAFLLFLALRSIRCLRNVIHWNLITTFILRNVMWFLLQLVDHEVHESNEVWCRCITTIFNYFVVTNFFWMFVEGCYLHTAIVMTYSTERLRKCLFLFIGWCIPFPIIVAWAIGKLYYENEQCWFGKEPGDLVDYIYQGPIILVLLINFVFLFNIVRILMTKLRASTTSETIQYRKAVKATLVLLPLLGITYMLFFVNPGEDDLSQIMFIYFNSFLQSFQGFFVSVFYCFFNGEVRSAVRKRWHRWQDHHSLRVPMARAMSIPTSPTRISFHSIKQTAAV
T3 sequence (P24387 whole entry): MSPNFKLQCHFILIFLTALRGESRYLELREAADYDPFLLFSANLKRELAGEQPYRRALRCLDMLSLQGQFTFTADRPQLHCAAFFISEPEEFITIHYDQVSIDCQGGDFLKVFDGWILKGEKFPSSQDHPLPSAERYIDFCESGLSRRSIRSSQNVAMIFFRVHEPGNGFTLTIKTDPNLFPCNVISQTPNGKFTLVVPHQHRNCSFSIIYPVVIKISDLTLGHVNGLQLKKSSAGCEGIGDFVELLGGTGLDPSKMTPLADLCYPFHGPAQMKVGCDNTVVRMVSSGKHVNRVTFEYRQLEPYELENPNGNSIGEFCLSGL

[5] = target: T3, Corticotropin-releasing factor receptor 2/Corticotropin-releasing factor-binding protein; test: activators of CRF receptor 2 with binding protein – uHTS hits, confirmation (AID 602473); type: functional; settings: read-out: EC50_Mean
SUMO-activating enzyme [6] = target: T4, SUMO-activating enzyme (Homo sapiens, UniProt Q9UBT2); test: blockers of UBC9-mediated SUMO conjugation – biochemical, AlphaScreen, SUMOylation inhibitor project, confirmation (AID 2018); type: functional
SUMO-activating enzyme [7] = target: T4, SUMO-activating enzyme; test: blockers of SAE1/SAE2–UBC9 SUMO transfer – biochemical, HTRF, uHTS, primary screen (AID 2006); type: protein-complex assay
Vero = test: viability of Vero cells under compound – cytotoxicity control for flavivirus capping enzyme inhibitors (AID 588742); type: functional; settings: Chlorocebus sabaeus
Genome polyprotein = Genome polyprotein (dengue virus type 2, UniProt P29990); test: flavivirus cap methylation enzyme inhibition – biochemical, confirmation dose response, primary screen (AID 588689); type: functional
[8] = target: T5, Lysosomal acid glucosylceramidase (Homo sapiens, UniProt P04062); test: Dose response cell-based high throughput screening assay to identify enhancers of beta-glucosidase activity. [Related pubchem assays: 784 ]; type: functional
T5 sequence (P04062 whole entry): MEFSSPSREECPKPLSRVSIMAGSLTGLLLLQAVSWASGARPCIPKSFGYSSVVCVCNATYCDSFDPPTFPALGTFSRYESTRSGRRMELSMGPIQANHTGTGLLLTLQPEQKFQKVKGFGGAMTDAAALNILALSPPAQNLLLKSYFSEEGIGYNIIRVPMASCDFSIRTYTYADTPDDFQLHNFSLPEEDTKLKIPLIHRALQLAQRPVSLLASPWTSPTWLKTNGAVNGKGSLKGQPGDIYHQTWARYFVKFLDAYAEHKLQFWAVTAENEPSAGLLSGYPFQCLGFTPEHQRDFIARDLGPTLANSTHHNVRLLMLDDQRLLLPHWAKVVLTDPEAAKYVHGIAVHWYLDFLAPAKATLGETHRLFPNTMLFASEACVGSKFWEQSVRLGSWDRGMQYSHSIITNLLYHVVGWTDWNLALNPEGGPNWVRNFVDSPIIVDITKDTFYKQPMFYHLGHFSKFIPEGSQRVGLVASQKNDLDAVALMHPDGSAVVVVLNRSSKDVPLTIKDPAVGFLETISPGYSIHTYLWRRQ

Beta-galactosidase = Beta-galactosidase (Escherichia coli, UniProt Q8VNN2); test: PubChem AID 485352; type: functional
[9] = target: T6, Type-1 angiotensin II receptor (Homo sapiens, UniProt P30556); test: antagonism of angiotensin II type 1 receptor – cell-based, uHTS hits, selectivity assay for APJ receptor antagonist project, dose response (AID 463214); type: functional;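 also: antagonist potency against angiotensin II stimulated AT1 response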
T6 sequence (P30556 whole entry): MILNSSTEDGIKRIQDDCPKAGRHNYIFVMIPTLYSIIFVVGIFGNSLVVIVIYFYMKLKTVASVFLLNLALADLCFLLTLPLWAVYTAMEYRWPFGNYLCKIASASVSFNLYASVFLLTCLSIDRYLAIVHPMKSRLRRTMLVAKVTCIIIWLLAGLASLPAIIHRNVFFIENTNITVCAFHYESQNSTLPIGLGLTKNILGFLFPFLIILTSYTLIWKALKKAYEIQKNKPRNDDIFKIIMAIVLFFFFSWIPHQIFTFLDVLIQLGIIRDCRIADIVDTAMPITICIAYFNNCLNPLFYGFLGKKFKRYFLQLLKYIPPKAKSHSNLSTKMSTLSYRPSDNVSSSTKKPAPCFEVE

[10] = target: Glucose-6-phosphate 1-dehydrogenase (Homo sapiens, UniProt P11413); test: inhibition of Homo sapiens G6PD, dose series – biochemical, fluorescence, selectivity assay for P. falciparum G6PD inhibitor project, dose response (AID 504792); type: functional
[11] = target: T7, Long-chain-fatty-acid--AMP ligase FadD28 (Mycobacterium tuberculosis, UniProt P9WQ59); test: Fluorescence polarization aasay to screen for inhibitors that compete for the binding of FadD28 to a bisubstrate Measured in Biochemical System Using Plate Reader - 2147-01_Inhibitor_Dose_CherryPick_Activity.; type: functional, Mycobacterium tuberculosis H37Rv
T7 sequence (P9WQ59 whole entry): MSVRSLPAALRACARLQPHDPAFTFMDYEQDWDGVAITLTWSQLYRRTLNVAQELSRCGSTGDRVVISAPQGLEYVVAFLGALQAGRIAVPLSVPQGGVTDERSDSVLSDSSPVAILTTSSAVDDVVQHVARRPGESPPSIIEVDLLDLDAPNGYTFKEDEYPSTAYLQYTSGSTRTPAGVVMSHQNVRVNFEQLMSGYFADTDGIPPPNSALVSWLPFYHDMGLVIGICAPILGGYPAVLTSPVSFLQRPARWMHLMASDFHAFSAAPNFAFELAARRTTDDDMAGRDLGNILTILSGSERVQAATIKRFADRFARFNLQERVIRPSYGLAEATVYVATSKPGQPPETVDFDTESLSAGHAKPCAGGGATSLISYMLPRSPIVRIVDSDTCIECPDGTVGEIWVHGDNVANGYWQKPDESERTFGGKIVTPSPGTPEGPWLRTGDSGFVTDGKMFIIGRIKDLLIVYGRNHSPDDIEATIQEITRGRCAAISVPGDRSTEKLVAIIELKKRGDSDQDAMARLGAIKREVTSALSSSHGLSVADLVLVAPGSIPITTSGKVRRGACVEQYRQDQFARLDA

[12] = target: Beta-2 adrenergic receptor (Homo sapiens, UniProt P07550); test: ADRB2 activation measured by internalization – cell-based, FAP fluorogen, flow cytometry, cherry pick 1, dose response (AID 588763); type: functional
[13] = target: T8, Heat shock factor protein 1 (Mus musculus, UniProt P38532); test: enhancement of HSF1-driven luciferase signal – cell-based, NIH3T3, luminescence, dose retest, confirmation (AID 435004); type: functional;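 also: stress induced by proteasome inhibitor MG132 added 30 min after compound; luciferase reporter driven by HSF1 response element in NIH3T3 cells; actives raise luminescence as potentiators of the MG132 stress response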
T8 sequence (P38532 whole entry): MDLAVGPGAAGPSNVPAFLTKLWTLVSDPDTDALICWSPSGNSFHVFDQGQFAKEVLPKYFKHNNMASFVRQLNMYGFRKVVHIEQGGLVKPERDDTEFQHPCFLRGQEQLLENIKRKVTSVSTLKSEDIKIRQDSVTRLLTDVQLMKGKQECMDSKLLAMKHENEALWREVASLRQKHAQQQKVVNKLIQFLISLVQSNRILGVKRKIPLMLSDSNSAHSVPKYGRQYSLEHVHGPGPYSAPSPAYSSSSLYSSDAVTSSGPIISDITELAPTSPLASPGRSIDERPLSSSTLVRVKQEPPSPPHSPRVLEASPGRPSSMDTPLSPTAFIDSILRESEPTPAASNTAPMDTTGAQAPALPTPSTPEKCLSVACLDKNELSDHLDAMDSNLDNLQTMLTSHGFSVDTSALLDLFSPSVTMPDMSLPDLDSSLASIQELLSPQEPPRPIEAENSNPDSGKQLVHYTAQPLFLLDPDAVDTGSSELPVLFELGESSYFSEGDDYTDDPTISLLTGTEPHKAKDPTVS

Large T antigen = Large T antigen (Simian virus 40, UniProt P03070); type: functional, Betapolyomavirus macacae;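 also: Confirmatory-stage PubChem screen for compounds that inhibit SV40 T antigen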
Chain of Large T antigen (P03070 whole entry): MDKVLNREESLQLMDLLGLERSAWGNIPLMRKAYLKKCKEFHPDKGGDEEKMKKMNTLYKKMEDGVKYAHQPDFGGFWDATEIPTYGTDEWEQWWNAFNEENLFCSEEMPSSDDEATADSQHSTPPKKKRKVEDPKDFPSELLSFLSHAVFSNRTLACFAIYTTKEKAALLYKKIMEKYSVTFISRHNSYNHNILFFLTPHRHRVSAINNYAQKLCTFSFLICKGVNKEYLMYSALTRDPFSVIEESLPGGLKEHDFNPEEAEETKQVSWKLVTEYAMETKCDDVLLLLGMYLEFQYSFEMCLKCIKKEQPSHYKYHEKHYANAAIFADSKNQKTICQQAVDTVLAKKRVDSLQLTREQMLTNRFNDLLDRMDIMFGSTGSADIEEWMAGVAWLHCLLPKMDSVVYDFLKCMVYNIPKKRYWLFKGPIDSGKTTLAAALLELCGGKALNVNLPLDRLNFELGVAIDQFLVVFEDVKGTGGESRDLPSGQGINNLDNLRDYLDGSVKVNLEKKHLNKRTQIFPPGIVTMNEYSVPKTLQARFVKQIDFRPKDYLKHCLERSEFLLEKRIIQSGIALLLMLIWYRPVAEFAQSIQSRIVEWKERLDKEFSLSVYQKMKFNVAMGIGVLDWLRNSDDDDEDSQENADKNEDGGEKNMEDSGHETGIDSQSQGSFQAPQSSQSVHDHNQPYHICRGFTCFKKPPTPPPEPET

Chain of Beta-galactosidase (Q8VNN2 whole entry): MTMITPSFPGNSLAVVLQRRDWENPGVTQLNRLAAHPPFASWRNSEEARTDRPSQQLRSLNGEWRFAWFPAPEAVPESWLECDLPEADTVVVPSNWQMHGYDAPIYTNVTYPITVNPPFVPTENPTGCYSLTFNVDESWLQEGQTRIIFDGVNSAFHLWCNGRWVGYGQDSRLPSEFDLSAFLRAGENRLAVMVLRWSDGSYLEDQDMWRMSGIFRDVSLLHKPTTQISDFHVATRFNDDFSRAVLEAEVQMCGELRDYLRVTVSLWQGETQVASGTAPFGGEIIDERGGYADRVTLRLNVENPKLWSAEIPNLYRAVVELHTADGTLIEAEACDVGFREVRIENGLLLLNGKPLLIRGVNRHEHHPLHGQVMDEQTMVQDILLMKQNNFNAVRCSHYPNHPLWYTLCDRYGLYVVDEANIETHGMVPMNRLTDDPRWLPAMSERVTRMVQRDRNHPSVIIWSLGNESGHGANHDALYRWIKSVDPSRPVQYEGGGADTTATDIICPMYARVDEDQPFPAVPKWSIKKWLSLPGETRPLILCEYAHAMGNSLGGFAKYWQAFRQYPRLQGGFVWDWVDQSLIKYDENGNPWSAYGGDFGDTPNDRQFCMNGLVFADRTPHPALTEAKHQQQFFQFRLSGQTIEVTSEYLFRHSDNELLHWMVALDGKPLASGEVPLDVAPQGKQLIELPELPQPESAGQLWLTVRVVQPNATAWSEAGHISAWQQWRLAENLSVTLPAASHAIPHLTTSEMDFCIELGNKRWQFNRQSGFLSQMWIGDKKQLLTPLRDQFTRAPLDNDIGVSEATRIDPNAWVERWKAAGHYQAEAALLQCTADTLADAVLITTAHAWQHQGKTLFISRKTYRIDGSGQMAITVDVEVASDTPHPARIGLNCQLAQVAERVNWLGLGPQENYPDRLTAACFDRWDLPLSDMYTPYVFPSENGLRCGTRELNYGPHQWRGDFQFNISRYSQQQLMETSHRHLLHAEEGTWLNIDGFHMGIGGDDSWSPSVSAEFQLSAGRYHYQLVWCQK
T1 sequence (P98170 whole entry): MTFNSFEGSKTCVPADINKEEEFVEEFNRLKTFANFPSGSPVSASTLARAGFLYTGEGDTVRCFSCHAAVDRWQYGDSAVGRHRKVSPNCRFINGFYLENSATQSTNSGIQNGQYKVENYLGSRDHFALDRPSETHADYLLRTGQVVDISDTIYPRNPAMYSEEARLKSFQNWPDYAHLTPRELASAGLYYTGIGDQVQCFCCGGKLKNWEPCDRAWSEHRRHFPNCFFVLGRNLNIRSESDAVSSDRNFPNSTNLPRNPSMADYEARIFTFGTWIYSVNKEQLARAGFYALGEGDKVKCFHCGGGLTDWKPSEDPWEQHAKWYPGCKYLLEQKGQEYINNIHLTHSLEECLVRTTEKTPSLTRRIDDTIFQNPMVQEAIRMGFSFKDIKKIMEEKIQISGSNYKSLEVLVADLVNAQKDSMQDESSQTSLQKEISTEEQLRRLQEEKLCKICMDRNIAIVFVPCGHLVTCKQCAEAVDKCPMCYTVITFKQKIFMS
Chain of Genome polyprotein (P29990 2492-3391 limits assumed): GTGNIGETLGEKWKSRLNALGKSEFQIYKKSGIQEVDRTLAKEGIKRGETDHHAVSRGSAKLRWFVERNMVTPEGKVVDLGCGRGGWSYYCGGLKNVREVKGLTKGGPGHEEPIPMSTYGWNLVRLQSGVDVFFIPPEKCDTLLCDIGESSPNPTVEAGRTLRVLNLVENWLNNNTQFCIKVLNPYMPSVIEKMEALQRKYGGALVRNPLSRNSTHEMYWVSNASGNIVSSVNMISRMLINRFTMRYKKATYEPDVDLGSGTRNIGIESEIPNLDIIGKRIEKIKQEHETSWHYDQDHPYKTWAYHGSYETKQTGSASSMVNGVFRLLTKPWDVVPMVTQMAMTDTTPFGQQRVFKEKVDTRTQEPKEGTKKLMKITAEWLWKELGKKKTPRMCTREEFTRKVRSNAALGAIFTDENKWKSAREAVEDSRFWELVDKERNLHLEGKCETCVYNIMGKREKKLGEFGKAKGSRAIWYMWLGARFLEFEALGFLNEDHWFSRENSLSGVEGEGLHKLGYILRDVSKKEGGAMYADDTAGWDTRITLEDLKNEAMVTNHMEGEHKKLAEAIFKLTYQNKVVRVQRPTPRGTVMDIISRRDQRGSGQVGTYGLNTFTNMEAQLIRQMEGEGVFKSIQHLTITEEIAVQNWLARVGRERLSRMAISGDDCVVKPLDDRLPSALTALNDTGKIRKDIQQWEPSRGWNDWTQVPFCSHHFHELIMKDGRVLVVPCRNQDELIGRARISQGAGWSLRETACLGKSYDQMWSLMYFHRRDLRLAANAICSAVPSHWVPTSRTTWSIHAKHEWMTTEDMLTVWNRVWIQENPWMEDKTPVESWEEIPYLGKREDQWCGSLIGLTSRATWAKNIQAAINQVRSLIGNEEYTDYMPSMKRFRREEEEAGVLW
T4 sequence (Q9UBE0 whole entry): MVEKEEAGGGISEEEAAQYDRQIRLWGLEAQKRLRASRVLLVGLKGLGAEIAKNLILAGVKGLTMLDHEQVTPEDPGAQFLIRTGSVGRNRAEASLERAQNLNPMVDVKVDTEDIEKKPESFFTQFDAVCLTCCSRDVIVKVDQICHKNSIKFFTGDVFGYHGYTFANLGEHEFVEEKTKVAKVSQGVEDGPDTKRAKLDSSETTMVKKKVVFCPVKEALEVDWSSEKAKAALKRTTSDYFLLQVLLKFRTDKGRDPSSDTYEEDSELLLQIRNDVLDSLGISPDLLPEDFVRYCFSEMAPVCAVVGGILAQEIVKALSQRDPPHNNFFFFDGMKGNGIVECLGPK
T4 sequence (Q9UBT2 whole entry): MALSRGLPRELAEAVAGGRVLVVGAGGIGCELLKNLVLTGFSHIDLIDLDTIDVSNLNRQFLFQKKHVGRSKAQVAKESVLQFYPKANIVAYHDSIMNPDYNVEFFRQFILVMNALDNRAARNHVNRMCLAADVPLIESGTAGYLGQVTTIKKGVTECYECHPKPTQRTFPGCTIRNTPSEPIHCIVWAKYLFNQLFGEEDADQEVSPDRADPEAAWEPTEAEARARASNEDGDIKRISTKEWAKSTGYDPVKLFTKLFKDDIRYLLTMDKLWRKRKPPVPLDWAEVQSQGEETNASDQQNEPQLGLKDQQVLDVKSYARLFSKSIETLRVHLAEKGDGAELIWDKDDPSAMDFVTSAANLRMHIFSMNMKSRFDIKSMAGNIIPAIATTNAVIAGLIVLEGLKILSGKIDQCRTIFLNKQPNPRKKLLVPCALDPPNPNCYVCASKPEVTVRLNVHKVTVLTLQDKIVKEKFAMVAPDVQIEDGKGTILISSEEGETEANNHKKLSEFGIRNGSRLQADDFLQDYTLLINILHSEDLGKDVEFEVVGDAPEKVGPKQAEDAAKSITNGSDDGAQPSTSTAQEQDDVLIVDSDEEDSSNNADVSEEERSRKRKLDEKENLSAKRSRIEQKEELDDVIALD
Chain of Beta-2 adrenergic receptor (P07550 whole entry): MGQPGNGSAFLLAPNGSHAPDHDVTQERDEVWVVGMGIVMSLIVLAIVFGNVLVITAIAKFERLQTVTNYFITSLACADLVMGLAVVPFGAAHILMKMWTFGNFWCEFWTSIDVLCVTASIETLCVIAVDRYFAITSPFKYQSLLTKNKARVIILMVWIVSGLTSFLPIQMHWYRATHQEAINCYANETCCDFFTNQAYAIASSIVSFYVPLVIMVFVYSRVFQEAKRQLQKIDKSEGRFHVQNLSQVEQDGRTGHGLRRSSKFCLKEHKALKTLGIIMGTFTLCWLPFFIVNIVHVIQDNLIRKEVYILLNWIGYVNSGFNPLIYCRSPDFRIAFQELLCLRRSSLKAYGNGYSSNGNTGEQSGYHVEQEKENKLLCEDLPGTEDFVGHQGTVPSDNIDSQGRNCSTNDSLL
Chain of Glucose-6-phosphate 1-dehydrogenase (P11413 whole entry): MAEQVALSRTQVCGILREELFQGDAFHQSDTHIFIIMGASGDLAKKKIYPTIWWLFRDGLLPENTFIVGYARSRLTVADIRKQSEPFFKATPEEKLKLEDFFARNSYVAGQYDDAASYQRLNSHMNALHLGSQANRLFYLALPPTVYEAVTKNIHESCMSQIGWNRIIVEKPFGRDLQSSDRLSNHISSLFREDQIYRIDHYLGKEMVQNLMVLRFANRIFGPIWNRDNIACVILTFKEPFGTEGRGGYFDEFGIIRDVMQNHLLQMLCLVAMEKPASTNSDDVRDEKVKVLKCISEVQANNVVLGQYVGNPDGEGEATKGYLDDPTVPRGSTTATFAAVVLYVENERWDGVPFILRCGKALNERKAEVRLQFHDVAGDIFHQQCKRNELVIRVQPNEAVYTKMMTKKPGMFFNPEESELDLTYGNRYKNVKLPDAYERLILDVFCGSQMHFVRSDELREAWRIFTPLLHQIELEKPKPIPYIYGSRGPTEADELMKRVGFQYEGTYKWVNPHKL

O=C(O)CN1C(c2ccccc2O)Nc2ccc(Br)cc2C1c1ccccc1 (stereo not drawn)
IC50 [1]: > 100 µM (inactive)
IC50 [2]: > 100 µM (not active)
EC50 [3]: 5.31 µM (active)
IC50 [4]: 28.6 µM (active)
EC50 [5]: > 53 µM (inactive)

CCc1ccc(NC(=O)NNC(=O)c2cc3ccccc3cc2O)cc1
IC50 (SUMO-activating enzyme [6]): 37.2 µM (active)
IC50 (SUMO-activating enzyme [7]): 11.6 µM (active)

Cc1ccc(S(=O)(=O)c2cn(CC(=O)Nc3ccccc3)c3ccc(F)cc3c2=O)cc1
IC50 [1]: > 100 µM (inactive)
IC50 [2]: > 100 µM (not active)

O=S(=O)(Nc1nc2ccccc2nc1NCc1ccco1)c1ccc(Cl)cc1
CC50 (Vero): > 40 µM (active)
IC50 (Genome polyprotein): 91.9 µM (active)

CC1CCCCN1C(=O)CSc1nc2cc3c(cc2c(=O)n1Cc1ccc2c(c1)OCO2)OCO3 (stereo not drawn)
EC50 [8]: > 50 µM (not active)
EC50 (Beta-galactosidase): > 40 µM (inactive)
IC50 [9]: > 40 µM (not active)

CCCCCCCCSC1=CC(=O)C(OC)=C(OC)C1=O
IC50 [10]: 48.1 µM (inactive)
CC50 (Vero): > 40 µM (active)
IC50 (Genome polyprotein): 12.5 µM (active)
AC50 [11]: 30.9 µM (active)

NC(=O)CC(NC(=O)Cc1cccc2ccccc12)c1ccc(NCCCN2CCCC2=O)c([N+](=O)[O-])c1 (stereo not drawn)
EC50 [12]: 0.801 µM (active)

N#Cc1ccccc1CSc1nc2cc(Br)c[nH]c-2n1
IC50 [1]: > 100 µM (inactive)
IC50 [2]: > 100 µM (not active)

CC(=O)c1ccc(NC2=c3ccccc3=NC2=O)cc1
EC50 (Beta-galactosidase): > 40 µM (inactive)
IC50 [9]: 3.1 µM (active)
EC50 [13]: > 260 µM (inactive)

CCc1ccc(C(=O)NNc2ccc(Cl)cc2)cc1
EC50 (Beta-galactosidase): > 40 µM (inactive)
IC50 [9]: 6.08 µM (active)

O=C(O)CN1C(=O)/C(=C\C(Br)=C\c2ccccc2)SC1=S
IC50 (Large T antigen): 53.4 µM (active)
CC50 (Vero): > 40 µM (active)
